Tests used:
[1] = biological target: T1, TRPV1 receptors (Mus musculus, UniProt Q704Y3); experiment: Test of mouse corneal irritation (capsaicin ocular instillation); assay type: in vivo; conditions: percentage of protection, pretreatment time t = 1 h, capsaicin 2 μl of 160 μM in the eye
T1 construct: from tissue; host or cells: living mouse, cornea (C fibres)
Description: Test of Mouse Corneal Irritation
The irritant nature of capsaicin is readily assessed on the cornea since this organ is one of the organs most densely innervated with C fibres. In this context, from preliminary experiments, the application of a very small amount of capsaicin (2 μl at a concentration of 160 μM) to the surface of the cornea of an animal leads to a certain number of stereotypic behavioral traits associated with irritation, which are easy to detect. Among these, the following are noted: blinking of the eye, rubbing of the instilled eye with the ipsilateral front paw, rubbing of the face with both front paws, scratching of the ipsilateral face with the hind paw. […] This aspect is moreover also normal. […]
In practice, the test product is administered orally and, with a delay (pretreatment time: t) that depends on the pharmacokinetic data, the animal receives an ocular instillation of 2 μl of a 160 μM capsaicin solution prepared as indicated above. During a 2-minute observation following the instillation, the number of times the instilled eye is rubbed with the ipsilateral front paw is recorded.
For a given animal, the percentage of protection is calculated as follows: P=100−((number of scratching actions observed/mean number of scratching actions for the group treated with the solvent)×100) […]

[2] = biological target: T2, TRPV1 receptor (Rattus norvegicus, UniProt O35433); experiment: Inhibition of the current induced with capsaicin on rat DRGs (whole-cell patch-clamp); assay type: cell-based; conditions: DRG neuron; compound at 3 nM; inhibition of control capsaicin response (300 nM); newborn rat DRG neurons; read-out: % inhibition as a DRG patch
T2 construct: The neurons of the DRG naturally express the TRPV1 receptor; endogenous in cells; host or cells: primary culture of newborn rat dorsal root ganglion neurons
Description: Test of Inhibition of the Current Induced with Capsaicin on Rat DRGs
Primary Culture of Rat Dorsal Root Ganglion (DRG) Cells:
The neurons of the DRG naturally express the TRPV1 receptor.
The primary cultures of newborn rat DRGs are prepared using 1-day-old rats. Briefly, after dissection, the ganglions are trypsinized and the cells dissociated by mechanical trituration. The cells are resuspended in an Eagle basal culture medium containing 10% fetal calf serum, 25 mM KCl, 2 mM glutamine, 100 μg/ml gentamicin and 50 ng/ml of NGF, and then deposited on glass slides coated with laminin (0.25×10^6 cells per slide), which are then placed in Corning 12-well dishes. The cells are incubated at 37° C. in a humidified atmosphere containing 5% CO2 and 95% air. […]
The measuring chambers (volume 800 μl) containing the cell preparation are placed on the platform of an inverted microscope (Olympus IMT2) equipped with Hoffman optics (Modulation Contrast, New York) and observed at a magnification of 400×. […] The overall currents (membrane potential set at −60 mV) are recorded with an Axopatch 1D amplifier (Axon Instruments, Foster City, Calif.), connected to a PC running the Pclamp8 software (Axon Instrument). The current plots are recorded on paper and simultaneously digitized (sampling frequency 15 to 25 Hz) and acquired on the hard drive of the PC. […]

T1 sequence (Q704Y3 whole entry): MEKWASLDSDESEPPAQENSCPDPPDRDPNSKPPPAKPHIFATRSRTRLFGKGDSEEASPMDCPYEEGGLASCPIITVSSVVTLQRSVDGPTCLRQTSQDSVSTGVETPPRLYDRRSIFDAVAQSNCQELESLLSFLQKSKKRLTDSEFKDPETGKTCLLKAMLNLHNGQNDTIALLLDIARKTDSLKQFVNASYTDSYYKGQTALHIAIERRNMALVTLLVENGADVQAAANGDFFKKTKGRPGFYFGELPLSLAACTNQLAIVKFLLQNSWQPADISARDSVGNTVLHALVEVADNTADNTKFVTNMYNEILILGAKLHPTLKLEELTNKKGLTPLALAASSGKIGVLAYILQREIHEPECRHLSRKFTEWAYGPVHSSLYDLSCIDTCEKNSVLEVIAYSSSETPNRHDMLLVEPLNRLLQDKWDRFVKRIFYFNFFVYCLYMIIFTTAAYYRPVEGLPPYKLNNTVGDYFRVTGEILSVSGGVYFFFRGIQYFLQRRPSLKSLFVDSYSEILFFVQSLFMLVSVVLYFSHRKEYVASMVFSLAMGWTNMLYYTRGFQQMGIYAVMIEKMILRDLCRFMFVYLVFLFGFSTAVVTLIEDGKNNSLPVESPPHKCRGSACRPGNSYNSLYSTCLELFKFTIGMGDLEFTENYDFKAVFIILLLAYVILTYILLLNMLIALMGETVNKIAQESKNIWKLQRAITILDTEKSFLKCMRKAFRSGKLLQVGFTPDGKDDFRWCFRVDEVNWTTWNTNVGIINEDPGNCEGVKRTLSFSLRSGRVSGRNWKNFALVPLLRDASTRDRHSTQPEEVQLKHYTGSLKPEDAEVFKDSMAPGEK
T2 sequence (O35433 whole entry): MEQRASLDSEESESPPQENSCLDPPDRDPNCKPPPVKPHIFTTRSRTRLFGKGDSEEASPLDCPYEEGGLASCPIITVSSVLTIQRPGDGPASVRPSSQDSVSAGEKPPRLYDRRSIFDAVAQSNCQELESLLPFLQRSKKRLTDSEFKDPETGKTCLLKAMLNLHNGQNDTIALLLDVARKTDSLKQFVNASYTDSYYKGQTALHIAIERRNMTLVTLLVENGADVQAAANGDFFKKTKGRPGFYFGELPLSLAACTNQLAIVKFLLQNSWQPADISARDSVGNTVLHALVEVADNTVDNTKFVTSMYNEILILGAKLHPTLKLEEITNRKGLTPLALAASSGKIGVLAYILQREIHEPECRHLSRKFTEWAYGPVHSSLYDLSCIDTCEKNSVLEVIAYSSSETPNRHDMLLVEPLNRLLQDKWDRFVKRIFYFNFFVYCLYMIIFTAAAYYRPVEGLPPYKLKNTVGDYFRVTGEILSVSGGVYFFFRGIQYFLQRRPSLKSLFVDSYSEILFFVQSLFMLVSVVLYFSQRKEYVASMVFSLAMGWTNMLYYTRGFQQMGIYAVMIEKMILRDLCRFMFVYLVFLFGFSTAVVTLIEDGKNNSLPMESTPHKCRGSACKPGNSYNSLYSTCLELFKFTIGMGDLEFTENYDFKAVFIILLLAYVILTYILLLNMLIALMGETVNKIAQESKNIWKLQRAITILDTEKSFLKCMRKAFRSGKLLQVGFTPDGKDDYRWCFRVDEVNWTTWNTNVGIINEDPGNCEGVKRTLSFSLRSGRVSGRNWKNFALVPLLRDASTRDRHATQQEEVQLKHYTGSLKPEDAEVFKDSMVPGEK

| Structure (SMILES) | melting point | % P - (t) at 1 mg/kg (po) [1] | inhibition at 0.003 µM [2] |
| --- | --- | --- | --- |
| Cl.Cn1ccc2cc(NC(=O)c3cc4cc(F)ccc4n3Cc3ccncc3)ccc21 [Compound 3, N-(1-Methyl-1H-indol-5-yl)-5-fluoro-1-[(pyrid-4-yl)methyl]-1H-indole-2-carboxamide hydrochloride (1:1)] |  | 44% - (1 h) |  |
| Cc1nc2cc(NC(=O)c3cc4cc(C(C)(C)C)ccc4n3Cc3ccncc3)ccc2n1C.Cl.Cl [Compound 6, N-(1,2-Dimethyl-1H-benzimidazol-5-yl)-5-t-butyl-1-[(pyrid-4-yl)methyl]-1H-indole-2-carboxamide hydrochloride (1:2)] |  | 24% - (1 h) | 80% |
| Cc1cnc(Cn2c(C(=O)Nc3ccc4c(c3)nc(C)n4C)cc3cc(F)ccc32)c(C)n1 | 266 to 269 °C |  |  |

Second part, led by results:

| melting point | Structure (SMILES) | % P - (t) at 1 mg/kg (po) [1] | inhibition at 0.003 µM [2] |
| --- | --- | --- | --- |
| 226 to 228 °C | Cc1ncc(Cn2c(C(=O)Nc3ccc4c(c3)nc(C)n4C)cc3cc(F)ccc32)nc1C |  |  |
| 269 to 275 °C | Cc1cnc(C)c(Cn2c(C(=O)Nc3ccc4c(c3)nc(C)n4C)cc3cc(F)ccc32)n1 |  |  |

Source: patent US8735432B2, “N-(Heteroaryl)-1-heteroarylalky1-1H-indole-2-carboxamide derivatives, preparation and therapeutic use thereof” (Sanofi, priority 2005, dated 2014)
